Reference: ChEMBL document CHEMBL3526057 (Drug Metab Dispos, 2011)

Columns and labels:
Type in all cases: ADME
Cytochrome P450 2C19 [1] = target: T1, Cytochrome P450 2C19 (Homo sapiens, UniProt P33261); assay: Activity of human recombinant CYP2C19.1A mutant expressed in Saccharomyces cerevisiae BJ5457 assessed as intrinisic clearance foromeprazole 5'-hydroxylation per pmol protein after 60 mins; settings: recombinant enzyme, 1 h
Cytochrome P450 2C19 [2] = target: T1, Cytochrome P450 2C19; assay: Activity of human recombinant CYP2C19.8 mutant expressed in Saccharomyces cerevisiae BJ5457 assessed as omeprazole 5'-hydroxylation per pmol protein at 5 uM after 60 mins; settings: recombinant enzyme, 1 h
Cytochrome P450 2C19 [3] = target: T1, Cytochrome P450 2C19; assay: Activity of human recombinant CYP2C19.1B mutant expressed in Saccharomyces cerevisiae BJ5457 assessed asomeprazole 5'-hydroxylation after 60 mins; settings: recombinant enzyme, 1 h
Cytochrome P450 2C19 [4] = target: T2, Cytochrome P450 2C19 (Homo sapiens, UniProt P33261, V331I/R442C); assay: Activity of human recombinant CYP2C19.16 mutant expressed in Saccharomyces cerevisiae BJ5457 assessed asomeprazole 5'-hydroxylation after 60 mins; settings: recombinant enzyme, 1 h
Cytochrome P450 2C19 [5] = target: T3, Cytochrome P450 2C19 (Homo sapiens, UniProt P33261, I19L); assay: Activity of human recombinant CYP2C19.15 mutant expressed in Saccharomyces cerevisiae BJ5457 assessed as omeprazole 5'-hydroxylation per pmol protein at 5 uM after 60 mins; settings: recombinant enzyme, 1 h
Cytochrome P450 2C19 [6] = target: T4, Cytochrome P450 2C19 (Homo sapiens, UniProt P33261, A161P); assay: Activity of human recombinant CYP2C19 A161P mutant expressed in Saccharomyces cerevisiae BJ5457 assessed as omeprazole 5'-hydroxylation per pmol protein at 5 uM after 60 mins; settings: recombinant enzyme, 1 h
Cytochrome P450 2C19 [7] = target: T5, Cytochrome P450 2C19 (Homo sapiens, UniProt P33261, E92D); assay: Activity of human recombinant CYP2C19 E92D mutant expressed in Saccharomyces cerevisiae BJ5457 assessed as intrinisic clearance foromeprazole 5'-hydroxylation per pmol protein after 60 mins; settings: recombinant enzyme, 1 h
Cytochrome P450 2C19 [8] = target: T1, Cytochrome P450 2C19; assay: Activity of human recombinant CYP2C19.1A mutant expressed in Saccharomyces cerevisiae BJ5457 assessed asomeprazole 5'-hydroxylation after 60 mins; settings: recombinant enzyme, 1 h
Cytochrome P450 2C19 [9] = target: T4, Cytochrome P450 2C19; assay: Activity of human recombinant CYP2C19 A161P mutant expressed in Saccharomyces cerevisiae BJ5457 assessed asomeprazole 5'-hydroxylation after 60 mins; settings: recombinant enzyme, 1 h
Cytochrome P450 2C19 [10] = target: T6, Cytochrome P450 2C19 (Homo sapiens, UniProt P33261, R144H); assay: Activity of human recombinant CYP2C19.9 mutant expressed in Saccharomyces cerevisiae BJ5457 assessed asomeprazole 5'-hydroxylation after 60 mins; settings: recombinant enzyme, 1 h
Cytochrome P450 2C19 [11] = target: Cytochrome P450 2C19 (Homo sapiens, UniProt P33261, D360N); assay: Activity of human recombinant CYP2C19 D360N mutant expressed in Saccharomyces cerevisiae BJ5457 assessed as omeprazole 5'-hydroxylation per pmol protein at 100 uM after 60 mins; settings: recombinant enzyme, 1 h
Cytochrome P450 2C19 [12] = target: Cytochrome P450 2C19 (Homo sapiens, UniProt P33261, P227L); assay: Activity of human recombinant CYP2C19.10 mutant expressed in Saccharomyces cerevisiae BJ5457 assessed asomeprazole 5'-hydroxylation after 60 mins; settings: recombinant enzyme, 1 h
Cytochrome P450 2C19 [13] = target: T2, Cytochrome P450 2C19; assay: Activity of human recombinant CYP2C19.16 mutant expressed in Saccharomyces cerevisiae BJ5457 assessed as omeprazole 5'-hydroxylation per pmol protein at 5 uM after 60 mins; settings: recombinant enzyme, 1 h
Cytochrome P450 2C19 [14] = target: T7, Cytochrome P450 2C19 (Homo sapiens, UniProt P33261, R150H); assay: Activity of human recombinant CYP2C19.11 mutant expressed in Saccharomyces cerevisiae BJ5457 assessed as omeprazole 5'-hydroxylation per pmol protein at 100 uM after 60 mins; settings: recombinant enzyme, 1 h
Cytochrome P450 2C19 [15] = target: T2, Cytochrome P450 2C19; assay: Activity of human recombinant CYP2C19.16 mutant expressed in Saccharomyces cerevisiae BJ5457 assessed as intrinisic clearance foromeprazole 5'-hydroxylation per pmol protein after 60 mins; settings: recombinant enzyme, 1 h
Cytochrome P450 2C19 [16] = target: T7, Cytochrome P450 2C19; assay: Activity of human recombinant CYP2C19.11 mutant expressed in Saccharomyces cerevisiae BJ5457 assessed as intrinisic clearance foromeprazole 5'-hydroxylation per pmol protein after 60 mins; settings: recombinant enzyme, 1 h
Cytochrome P450 2C19 [17] = target: T1, Cytochrome P450 2C19; assay: Activity of human recombinant CYP2C19.1B mutant expressed in Saccharomyces cerevisiae BJ5457 assessed as intrinisic clearance foromeprazole 5'-hydroxylation per pmol protein after 60 mins; settings: recombinant enzyme, 1 h
Cytochrome P450 2C19 [18] = target: T8, Cytochrome P450 2C19 (Homo sapiens, UniProt P33261, S51G); assay: Activity of human recombinant CYP2C19.19 mutant expressed in Saccharomyces cerevisiae BJ5457 assessed asomeprazole 5'-hydroxylation per pmol protein after 60 mins; settings: recombinant enzyme, 1 h
[19] = target: CYP2C19.14 (CYP2C19 variant) (Homo sapiens, UniProt P33261, L17P); assay: Activity of human recombinant CYP2C19.14 mutant expressed in Saccharomyces cerevisiae BJ5457 assessed asomeprazole 5'-hydroxylation after 60 mins; settings: probe omeprazole (5'-hydroxylation)
Cytochrome P450 2C19 [20] = target: T4, Cytochrome P450 2C19; assay: Activity of human recombinant CYP2C19 A161P mutant expressed in Saccharomyces cerevisiae BJ5457 assessed as omeprazole 5'-hydroxylation per pmol protein at 100 uM after 60 mins; settings: recombinant enzyme, 1 h
Cytochrome P450 2C19 [21] = target: T9, Cytochrome P450 2C19 (Homo sapiens, UniProt P33261, M74T); assay: Activity of human recombinant CYP2C19 M74T mutant expressed in Saccharomyces cerevisiae BJ5457 assessed as omeprazole 5'-hydroxylation per pmol protein at 100 uM after 60 mins; settings: recombinant enzyme, 1 h
Cytochrome P450 2C19 [22] = target: Cytochrome P450 2C19 (Homo sapiens, UniProt P33261, E122A); assay: Activity of human recombinant CYP2C19 E122A mutant expressed in Saccharomyces cerevisiae BJ5457 assessed as omeprazole 5'-hydroxylation per pmol protein at 100 uM after 60 mins; settings: recombinant enzyme, 1 h
Cytochrome P450 2C19 [23] = target: Cytochrome P450 2C19 (Homo sapiens, UniProt P33261, R410C); assay: Activity of human recombinant CYP2C19.13 mutant expressed in Saccharomyces cerevisiae BJ5457 assessed as omeprazole 5'-hydroxylation per pmol protein at 100 uM after 60 mins; settings: recombinant enzyme, 1 h
Cytochrome P450 2C19 [24] = target: T8, Cytochrome P450 2C19; assay: Activity of human recombinant CYP2C19.19 mutant expressed in Saccharomyces cerevisiae BJ5457 assessed as omeprazole 5'-hydroxylation per pmol protein at 5 uM after 60 mins; settings: recombinant enzyme, 1 h
Cytochrome P450 2C19 [25] = target: T9, Cytochrome P450 2C19; assay: Activity of human recombinant CYP2C19 M74T mutant expressed in Saccharomyces cerevisiae BJ5457 assessed as omeprazole 5'-hydroxylation per pmol protein at 5 uM after 60 mins; settings: recombinant enzyme, 1 h
Cytochrome P450 2C19 [26] = target: T4, Cytochrome P450 2C19; assay: Activity of human recombinant CYP2C19 A161P mutant expressed in Saccharomyces cerevisiae BJ5457 assessed asomeprazole 5'-hydroxylation per pmol protein after 60 mins; settings: recombinant enzyme, 1 h
Cytochrome P450 2C19 [27] = target: T5, Cytochrome P450 2C19; assay: Activity of human recombinant CYP2C19 E92D mutant expressed in Saccharomyces cerevisiae BJ5457 assessed as omeprazole 5'-hydroxylation per pmol protein at 5 uM after 60 mins; settings: recombinant enzyme, 1 h
Cytochrome P450 2C19 [28] = target: T3, Cytochrome P450 2C19; assay: Activity of human recombinant CYP2C19.15 mutant expressed in Saccharomyces cerevisiae BJ5457 assessed asomeprazole 5'-hydroxylation per pmol protein after 60 mins; settings: recombinant enzyme, 1 h
Cytochrome P450 2C19 [29] = target: T6, Cytochrome P450 2C19; assay: Activity of human recombinant CYP2C19.9 mutant expressed in Saccharomyces cerevisiae BJ5457 assessed asomeprazole 5'-hydroxylation per pmol protein after 60 mins; settings: recombinant enzyme, 1 h
Cytochrome P450 2C19 [30] = target: T1, Cytochrome P450 2C19; assay: Activity of human recombinant CYP2C19.1A mutant expressed in Saccharomyces cerevisiae BJ5457 assessed asomeprazole 5'-hydroxylation per pmol protein after 60 mins; settings: recombinant enzyme, 1 h
Cytochrome P450 2C19 [31] = target: T6, Cytochrome P450 2C19; assay: Activity of human recombinant CYP2C19.9 mutant expressed in Saccharomyces cerevisiae BJ5457 assessed as intrinisic clearance foromeprazole 5'-hydroxylation per pmol protein after 60 mins; settings: recombinant enzyme, 1 h

CL (Cytochrome P450 2C19 [1]): 1.49 µL/min | Drug metabolism (Cytochrome P450 2C19 [2]): metabolite_not_detected | Km (Cytochrome P450 2C19 [3]): 4.16 µM | Km (Cytochrome P450 2C19 [4]): 4.17 µM | Drug metabolism (Cytochrome P450 2C19 [5]): 3.41 pmol/min | Drug metabolism (Cytochrome P450 2C19 [6]): 0.65 pmol/min | CL (Cytochrome P450 2C19 [7]): 0.79 µL/min | Km (Cytochrome P450 2C19 [8]): 5.42 µM | Km (Cytochrome P450 2C19 [9]): 6.68 µM | Km (Cytochrome P450 2C19 [10]): 10.1 µM | Drug metabolism (Cytochrome P450 2C19 [11]): 4.1 pmol/min | Km (Cytochrome P450 2C19 [12]): 10.6 µM | Drug metabolism (Cytochrome P450 2C19 [13]): 0.65 pmol/min | Drug metabolism (Cytochrome P450 2C19 [14]): 6.38 pmol/min | CL (Cytochrome P450 2C19 [15]): 0.41 µL/min | CL (Cytochrome P450 2C19 [16]): 1.68 µL/min | CL (Cytochrome P450 2C19 [17]): 1.24 µL/min | Vmax (Cytochrome P450 2C19 [18]): 9.59 pmol/min | Km at 1 h [19]: 4.3 µM | Drug metabolism (Cytochrome P450 2C19 [20]): 1.39 pmol/min | Drug metabolism (Cytochrome P450 2C19 [21]): 4.27 pmol/min | Drug metabolism (Cytochrome P450 2C19 [22]): 4.71 pmol/min | Drug metabolism (Cytochrome P450 2C19 [23]): 8.55 pmol/min | Drug metabolism (Cytochrome P450 2C19 [24]): 2.82 pmol/min | Drug metabolism (Cytochrome P450 2C19 [25]): 2.24 pmol/min | Vmax (Cytochrome P450 2C19 [26]): 1.61 pmol/min | Drug metabolism (Cytochrome P450 2C19 [27]): 2.95 pmol/min | Vmax (Cytochrome P450 2C19 [28]): 8.18 pmol/min | Vmax (Cytochrome P450 2C19 [29]): 6.21 pmol/min | Vmax (Cytochrome P450 2C19 [30]): 7.97 pmol/min | CL (Cytochrome P450 2C19 [31]): 0.62 µL/min
SMILES: COc1ccc2[nH]c([S+]([O-])Cc3ncc(C)c(OC)c3C)nc2c1 (stereo unspecified) [OMEPRAZOLE]
